Activity calls are given as the source filed them. The calls are words filed in the database; no cut-off is given here.

Test [1] has as its target T1, Peroxisome proliferator-activated receptor gamma (Homo sapiens) (UniProt P37231).
T1 sequence (whole entry): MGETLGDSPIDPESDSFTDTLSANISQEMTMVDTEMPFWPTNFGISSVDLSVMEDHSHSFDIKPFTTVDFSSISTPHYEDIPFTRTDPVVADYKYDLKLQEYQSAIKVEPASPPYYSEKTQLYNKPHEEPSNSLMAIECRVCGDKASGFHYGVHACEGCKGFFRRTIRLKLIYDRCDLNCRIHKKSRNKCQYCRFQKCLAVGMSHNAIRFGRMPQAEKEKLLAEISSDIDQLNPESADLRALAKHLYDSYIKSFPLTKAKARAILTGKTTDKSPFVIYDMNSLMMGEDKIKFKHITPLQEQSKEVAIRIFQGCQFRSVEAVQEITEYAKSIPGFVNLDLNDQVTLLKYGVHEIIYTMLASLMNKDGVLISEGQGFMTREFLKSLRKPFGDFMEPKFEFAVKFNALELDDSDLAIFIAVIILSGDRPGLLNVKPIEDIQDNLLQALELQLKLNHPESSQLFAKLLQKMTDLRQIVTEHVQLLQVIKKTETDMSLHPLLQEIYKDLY
The test is described as follows: Partial agonist activity at PPARgamma (unknown origin) assessed as induction of receptor transactivation at 0.1 to 10 uM relative to 10 uM pioglitazone.

Test [2] has as its target T1, Peroxisome proliferator-activated receptor gamma (Homo sapiens). The test can be described thus: Antagonist activity at PPARgamma (unknown origin) assessed as inhibition of 10 uM pioglitazone-induced receptor transactivation at 0.1 to 10 uM.

Turning to `CCCOc1ccc(C(=O)NS(=O)(=O)Cc2ccccc2)cc1CNC(=O)c1ccc(-c2ncccn2)cc1`, the result in test [1] was Active. Moreover, the inhibition entry in test [2] is “Dose-dependent effect”.

Values taken from ChEMBL document CHEMBL3588857, “Peroxisome proliferator-activated receptor gamma (PPARγ) has multiple binding points that accommodate ligands in various conformations: Structurally similar PPARγ partial agonists bind to PPARγ LBD in different conformations” (Bioorg Med Chem Lett, 2015).
